This experiment concerns the target T1, human sigma 1 receptor (Homo sapiens, UniProt Q99720).
T1 construct: expressed in transfected cells; host or cells: HEK-293
Put plainly: Human sigma 1 receptor radioligand assay ([3H](+)-pentazocine, transfected HEK-293 membranes). It is filed as binding. To be noted: 5 nM [3H](+)-pentazocine, 37° C., 120 minutes. On the procedure: Biological Activity Pharmacological Study Human Sigma 1 Receptor Radioligand Assay
To investigate binding properties of sigma 1 receptor ligands to human sigma 1 receptor, transfected HEK-293 membranes and [^3H](+)-pentazocine (Perkin Elmer, NET-1056), as the radioligand, were used. The assay was carried out with 7 μg of membrane suspension, 5 nM of [^3H](+)-pentazocine in either absence or presence of either buffer or 10 μM Haloperidol for total and non-specific binding, respectively. Binding buffer contained Tris-HCl 50 mM at pH 8. Plates were incubated at 37° C. for 120 minutes. After the incubation period, the reaction mix was then transferred to MultiScreen HTS, FC plates (Millipore), filtered and plates were washed 3 times with ice-cold 10 mM TrisHCL (pH7.4). Filters were dried and counted at approximately 40% efficiency in a MicroBeta scintillation counter (Perkin-Elmer) using EcoScint liquid scintillation cocktail.

Counter-ions that a name gives are not always drawn.

These results are taken from US9879015B2, “Pyrazino[1,2-a]indole compounds, their preparation and use in medicaments” (LABORATORIOS DEL DR. ESTEVE S.A., priority 2013, dated 2018).

As usually defined, the Ki is a measure of affinity in units of concentration, obtained from inhibition or displacement.

T1 sequence (Q99720 whole entry): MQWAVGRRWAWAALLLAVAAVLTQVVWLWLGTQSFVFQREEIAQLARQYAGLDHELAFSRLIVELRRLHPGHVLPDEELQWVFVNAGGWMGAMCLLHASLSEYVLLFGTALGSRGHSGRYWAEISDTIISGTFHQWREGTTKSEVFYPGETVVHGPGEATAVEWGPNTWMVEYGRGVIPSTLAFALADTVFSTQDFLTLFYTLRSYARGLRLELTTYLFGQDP

With `CC(CN1CCn2c(cc3ccccc32)C1)N1CCN(C)CC1` (stereo not shown) [Example 1, 2-(2-(4-methylpiperazin-1-yl)propyl)-1,2,3,4-tetrahydropyrazino[1,2-a]indole], the affinity, expressed as Ki, was 0.0298 µM.
The figure for `c1ccc2c(c1)CC1CN(CCN3CCCCCC3)CCN21` (stereo not shown) [Example 2, 2-(2-(azepan-1-yl)ethyl)-1,2,3,4,10,10a-hexahydropyrazino[1,2-a]indole] is 0.0073 µM.
Compound `c1ccc2c(c1)cc1n2CCN(CCN2CCCCCC2)C1` [Example 3, 2-(2-(azepan-1-yl)ethyl)-1,2,3,4-tetrahydropyrazino[1,2-a]indole hydrochloride] gave a Ki of 0.0039 µM.
The figure for `c1ccc(CC2CCN(CCN3CCn4c(cc5ccccc54)C3)CC2)cc1` [Example 4, 2-(2-(4-benzylpiperidin-1-yl)ethyl)-1,2,3,4-tetrahydropyrazino[1,2-a]indole hydrochloride] is 0.0146 µM; for `CN1CCN(CCN2CCn3c(cc4ccccc43)C2)CC1` [Example 5, 2-(2-(4-methylpiperazin-1-yl)ethyl)-1,2,3,4-tetrahydropyrazino[1,2-a]indole hydrochloride] it is 0.153 µM.
The figure for `CC(CN1CCn2c(cc3ccccc32)C1)N1CCC(Cc2ccccc2)CC1` (stereo not shown) [Example 6, 2-(2-(4-benzylpiperidin-1-yl)propyl)-1,2,3,4-tetrahydropyrazino[1,2-a]indole maleate] is 0.175 µM.
Then `CN(C)CCCCN1CCn2c(cc3ccccc32)C1` [Example 7, 4-(3,4-dihydropyrazino[1,2-a]indol-2(1H)-yl)-N,N-dimethylbutan-1-amine], with 0.0891 µM.
Compound `Cc1c2n(c3ccccc13)CCN(CCN1CCCCCC1)C2` [Example 8, 2-(2-(azepan-1-yl)ethyl)-10-methyl-1,2,3,4-tetrahydropyrazino[1,2-a]indole] had a Ki of 0.0125 µM.
The figure for `Fc1ccc2c(c1)cc1n2CCN(CCN2CCCCCC2)C1` [Example 9, 2-(2-(azepan-1-yl)ethyl)-8-fluoro-1,2,3,4-tetrahydropyrazino[1,2-a]indole] is 0.0019 µM; for `Cc1ccc2c(c1)cc1n2CCN(CC(C)N2CCCCCC2)C1` (stereo not shown) [Example 10, 2-(2-(azepan-1-yl)propyl)-8-methyl-1,2,3,4-tetrahydropyrazino[1,2-a]indole] it is 0.0074 µM.
Then `Cc1c2n(c3ccccc13)CCN(CCN1CCC(Cc3ccccc3)CC1)C2` [Example 11, 2-(2-(4-benzylpiperidin-1-yl)ethyl)-10-methyl-1,2,3,4-tetrahydropyrazino[1,2-a]indole], with 0.0214 µM.
Then `Fc1ccc2c(c1)cc1n2CCN(CCCCN2CCCCC2)C1` [Example 12, 8-fluoro-2-(4-(piperidin-1-yl)butyl)-1,2,3,4-tetrahydropyrazino[1,2-a]indole], with 0.0076 µM.
`c1ccc2c(c1)cc1n2CCN(CCCN2CCCCCC2)C1` [Example 13, 2-(3-(azepan-1-yl)propyl)-1,2,3,4-tetrahydropyrazino[1,2-a]indole]: the Ki came out at 0.0199 µM.
`c1ccc2c(c1)cc1n2CCN(CCCCN2CCCCC2)C1` [Example 14, 2-(4-(piperidin-1-yl)butyl)-1,2,3,4-tetrahydropyrazino[1,2-a]indole] gave a Ki of 0.0135 µM.
Then `Fc1ccc2c(c1)cc1n2CCN(CCCCN2CCCCCC2)C1` [Example 15, 2-(4-(azepan-1-yl)butyl)-8-fluoro-1,2,3,4-tetrahydropyrazino[1,2-a]indole], with 0.0086 µM; and `CN1CCN(CCCCN2CCn3c(cc4ccccc43)C2)CC1` [Example 16, 2-(4-(4-methylpiperazin-1-yl)butyl)-1,2,3,4-tetrahydropyrazino[1,2-a]indole], with 0.0358 µM; and `CC(CN1CCn2c(cc3ccccc32)C1)N1CCN(C2CCCCC2)CC1` (stereo not shown) [Example 17, 2-(2-(4-cyclohexylpiperazin-1-yl)propyl)-1,2,3,4-tetrahydropyrazino[1,2-a]indole], with 0.0092 µM.
Regarding `CC(CN1CCn2c(cc3cc(F)ccc32)C1)N1CCN(C)CC1` (stereo not shown) [Example 18, 8-fluoro-2-(2-(4-methylpiperazin-1-yl)propyl)-1,2,3,4-tetrahydropyrazino[1,2-a]indole], the affinity, expressed as Ki, was 0.0141 µM.
The figure for `CN(C)CCCCN1CCN2c3ccccc3CC2C1` (stereo not shown) [Example 19, N,N-dimethyl-4-(3,4,10,10a-tetrahydropyrazino[1,2-a]indol-2(1H)-yl)butan-1-amine] is 0.153 µM.
